Assay results published in patent US20260183283A1 (priority 2022, published 2026).

Key:
clinical = settings: for half-life / AUC / Cmax / Tmax: human, plasma; for AUC: AUCtau; for AUC / Cmax: arithmetic mean
Text: Following the screening period, eligible subjects will be admitted to the clinical unit on Day 1. All subjects will receive the study drug for 7 days starting on Day 1. […] Dosing frequency and any instructions regarding meal intake will depend on data from the SAD cohorts and will be provided in a separate document. The dosing duration may be increased to up to 14 days to allow for achievement of 3 half-lives. […] Subjects will return for an EOS visit on Day 15 or up to approximately 5 half-lives up to a maximum of Day 42 (whichever is longer).
The tentative starting dose for this portion of the study will be 30 mg daily. Dose escalation for Cohort 2 and beyond will be based on the safety, tolerability, and PK of the previous cohort. […] Planned doses for subsequent cohorts are 60, 120, 200, and 300 mg daily; the maximum dose increment between cohorts will be no more than 2 times the previous dose.

in vivo [1] = settings: monkey
[2] = system: Pank1,2 neural knockout mice; experiment: Total forebrain CoA in Pank1,2 neural knockout mice; assay type: in vivo; settings: 75 ppm in chow from postnatal day 14; assessed at postnatal day 45
Text: (§1) Water was supplied ad libitum. Mice were maintained on a chow diet with purified ingredients containing 19% kcal protein, 66.5% kcal carbohydrate and 14.4% kcal fat (Envigo #TD170542) which was similar to standard rodent chow (LabDiet #5013). The mice were randomized into the treatment arms. […] However, this is an approximation, as SynCre^+Pank1^−/−Pank2^−/− mice both weigh less and eat less than wild-type mice. […] At the end of the dark cycle, individual mice were placed in an open rectangular arena (36.8 cm×43.2 cm) for 5 min during the light cycle and motor activity was evaluated using a video tracking system provided by HVS Image with associated 2100 Plus software (San Diego, CA, USA). Each animal was placed in the center of the arena under standard overhead lighting and the total distance traveled and the percentage of time in motion were recorded. The behaviors of age-matched control animals, treated with Compound (I) and untreated, were quantified and compared. […] Liver, forebrain and hindbrain were quickly excised, approximately 30-50 mg pieces were immediately flash frozen in liquid N2 and stored frozen at −80° C. until analysis. The plasma and tissue samples were used for Compound (I) and total CoA determinations.
Statistical significance was determined using a two-tailed Student's t test (GraphPad software) and P-values are shown about the bars, N=6-8. […]

[3] = system: Pcca^−/−PCCA(A138T)^tg/0 mice; experiment: Plasma and urine acyl carnitines in Pcca−/−PCCA(A138T)tg/0 mice; assay type: in vivo
Experimental: The mice were maintained at 72′±2° F., humidity 50%±10% and a 14-hour light/10-hour dark cycle with the dark cycle starting at 20:00 hrs. Water was supplied ad libitum. The mice were randomized into the treatment arms to achieve a normal weight distribution. […] Blood was collected in ethylenediaminetetraacetic acid (EDTA) at P50 by cardiac puncture from isoflurane-anesthetized animals, plasma was prepared and stored frozen at −80° C. until analysis. Liver, brain, and heart were quickly excised, immediately flash frozen in liquid nitrogen and stored frozen at −80° C. until analysis.
Metabolites from Urine and Plasma: Water was added to thawed 24-hr urine samples to a final volume of 1 mL for each mouse. To 100 μL of urine or 20 μL of plasma, warfarin standard was added at a final concentration of 0.2 μM and the sample was incubated at −80° C. for 1 hour. The sample was centrifuged at 6000×g for 10 minutes to remove precipitants and the supernatant was analyzed by LC/MS/MS. Analysis was performed using a Shimadzu Prominence UFLC attached to a QTrap 4500 equipped with a Turbo V ion source (Sciex). […] The system was controlled by the Analyst® software (Sciex) and analyzed with MultiQuant™ 3.0.2 software (Sciex). The relative amount of metabolite was normalized to the amount of warfarin then the ratio to creatinine was calculated.

in vivo [4] = settings: rat
[5] = system: C57BL/6J (wild-type) mice; settings: oral gavage QD 0.1, 1, 3, 10 or 30 mg/kg for one week; four hours after last dose
Experimental: Tissue Total CoA Determinations: Total CoA was quantified as described earlier. Either frozen brain or liver tissue (30-40 mg) was homogenized in 1 mM potassium hydroxide (KOH) to hydrolyze all the acyl chains and then the CoA was derivatized with monobromobimane (mBBr). […] The retention time was determined by running a CoA standard before each set of samples. Total CoA was quantified using a standard curve generated with known amounts of CoA.
Control animals were administered 0.5% methylcellulose QD for one week. Four hours after the last dose, the animals were sacrificed, plasma and tissues were collected, and CoA levels were determined in tissues. […] Statistical significance was determined for total CoA using a Student's t-test calculated with GraphPad software and P-values compared to the control animals are noted on the figure panels.

[6] = system: Pank1,2 neural knockout mice; experiment: Survival of Pank1,2 neural knockout mice; assay type: in vivo; settings: 75 ppm in chow from postnatal day 14; untreated ~50%
Text: as §1
(§2) Following analysis of movement, all animals were sacrificed at postnatal Day 45 for examination of tissue CoA levels.

[7] = system: Pank1,2 neural knockout mice; experiment: Body weight of Pank1,2 neural knockout mice; assay type: in vivo; settings: 75 ppm in chow from postnatal day 14
Text: as §1, §2

[8] = system: Pcca^−/−PCCA(A138T)^tg/0 mice; experiment: Acyl-CoA in liver, brain and heart of Pcca−/−PCCA(A138T)tg/0 mice; assay type: in vivo; settings: 22.5 ppm (3 mg/kg) in chow for 30 days after weaning
Experimental: Water was supplied ad libitum.
Acyl-CoA Measurements by Mass Spectrometry: Acyl-CoAs were quantified as described by Sharma et al., Nat. Commun. 2018; 9:4399. Briefly, 30-40 mg of tissue was homogenized in 2 mL methanol and 1 mL water and incubated on ice for 30 minutes. 1.5 mL of chloroform and 1.2 mL of water was added to remove the lipids. The aqueous top layer was collected and 30 pmol of [13C]acetyl-CoA (Sigma) was added and dried overnight in a speedvac.
Mass spectrometry of the acyl-CoA distribution was performed using a Finnigan TSQ Quantum (Thermo Electron) triple-quadrupole mass spectrometer. The instrument was operated in positive mode using single ion monitoring (SIM) neutral loss scanning corresponding to the loss of the phosphoadenosine diphosphate from CoA species. The ion source parameters were as follows: spray voltage, 4,000 V; capillary temperature, 250° C.; capillary offset, −35 V; sheath gas pressure, 10; auxiliary gas pressure, 5; and tube lens offset was set by infusion of the polytyrosine tuning and calibration in electrospray mode. Acquisition parameters were as follows: scan time, 0.5 s; collision energy, 30 V; peak width Q1 and Q3, 0.7 FWHM; Q2 CID gas, 0.5 mTorr; source CID, 10 V; neutral loss, 507.0 m/z; SIM mass of 810 m/z with a scan width of 8 m/z to capture the signal from cellular acetyl-CoA and the [13C]acetyl-CoA internal standard.

For `O=C(Cc1ccc(C2CC2)c(F)c1)N1CCN(c2ccc(Cl)nn2)CC1` [Compound (I), 1-(4-(6-chloropyridazin-3-yl)piperazin-1-yl)-2-(4-cyclopropyl-3-fluorophenyl)ethan-1-one], which “Urinary excretion of Compound (I)” value (clinical; healthy subjects) is on record?
The value was “negligible”.

And the half-life (clinical; oral)?
Its half-life is 6 to 8 h.

What about the half-life (clinical; oral, 30 mg) of the same compound?
The half-life was 7.55 h.

What about the AUC (clinical; oral, 30 mg, 30 mg QD, Day 1, AUC0-24) of the same compound?
The AUC was 476 ng·h/mL.

And the AUC (clinical; oral, 30 mg, 30 mg QD, Day 7, AUC0-24)?
The AUC was 913 ng·h/mL.

And the Cmax (clinical; oral, 30 mg, 30 mg QD, Day 1)?
The Cmax was 98.3 ng/mL.

What about the Cmax (clinical; oral, 30 mg, 30 mg QD, Day 7) of the same compound?
Its Cmax is 158 ng/mL.

And the Tmax (clinical; oral, 30 mg, Tmax, 30 mg QD, Day 1, median)?
The Tmax was 1.5 h.

And the Tmax (clinical; oral, 30 mg, Tmax, 30 mg QD, Day 7, median)?
Its Tmax is 1.5 h.

And the AUC (clinical; oral, 50 mg, 50 mg Q12H, Day 1, AUC0-12)?
The AUC was 925 ng·h/mL.

And the Cmax (clinical; oral, 50 mg, 50 mg Q12H, Day 1)?
The Cmax was 155 ng/mL.

And the Tmax (clinical; oral, 50 mg, Tmax, 50 mg Q12H, Day 1, median)?
The Tmax was 1.5 h.

What about the half-life (clinical; oral, 60 mg) of the same compound?
Its half-life is 6.7 h.

And the AUC (clinical; oral, 60 mg, 60 mg QD, Day 1, AUC0-24)?
The AUC was 1670 ng·h/mL.

What about the AUC (clinical; oral, 60 mg, 60 mg QD, Day 7, AUC0-24) of the same compound?
The AUC was 4050 ng·h/mL.

And the Cmax (clinical; oral, 60 mg, 60 mg QD, Day 1)?
Its Cmax is 240 ng/mL.

What about the Cmax (clinical; oral, 60 mg, 60 mg QD, Day 7) of the same compound?
Its Cmax is 505 ng/mL.

And the Tmax (clinical; oral, 60 mg, Tmax, 60 mg QD, Day 1, median)?
Its Tmax is 1.75 h.

And the Tmax (clinical; oral, 60 mg, Tmax, 60 mg QD, Day 7, median)?
Its Tmax is 2.01 h.

What about the half-life (clinical; oral, 70 mg) of the same compound?
Its half-life is 6.83 h.

And the AUC (clinical; oral, 70 mg, 70 mg QD, Day 7, AUC0-24)?
The AUC was 2950 ng·h/mL.

What about the Cmax (clinical; oral, 70 mg, 70 mg QD, Day 1) of the same compound?
The Cmax was 205 ng/mL.

What about the Cmax (clinical; oral, 70 mg, 70 mg QD, Day 7) of the same compound?
Its Cmax is 400 ng/mL.

What about the Tmax (clinical; oral, 70 mg, Tmax, 70 mg QD, Day 1, median) of the same compound?
The Tmax was 1.5 h.

What about the Tmax (clinical; oral, 70 mg, Tmax, 70 mg QD, Day 7, median) of the same compound?
The Tmax was 1.5 h.

And the Tmax (clinical; po, Tmax after oral administration, healthy subjects, over cohorts)?
Its Tmax is 1 to 2 h.

What about the “Increase in exposure with dose” value (clinical; total daily dose increased from 30 mg to 100 mg) of the same compound?
Its value is “more than dose-proportional”.

What about the clearance (in vivo [1]; iv) of the same compound?
Its clearance is 19.7 mL/min/kg.

And the bioavailability (in vivo [1]; po)?
Its bioavailability is 17.6%.

What about the “Increase of forebrain CoA levels vs untreated mice” value [2] of the same compound?
The value was roughly 70%.

What about the “Decreased free carnitine and C2-carnitine levels in plasma and urine” value ([3]; 22.5 ppm (3 mg/kg) in chow for 30 days after weaning) of the same compound?
The value was “rescued”.

And the C3-carnitine in plasma ([3]; 22.5 ppm (3 mg/kg) in chow, plasma)?
The C3-carnitine in plasma was “decreased”.

And the clearance (in vivo [4]; iv)?
Its clearance is 32.6 mL/min/kg.

What about the bioavailability (in vivo [4]; po) of the same compound?
Its bioavailability is 35.2%.

What about the “Brain (forebrain and hindbrain) total CoA response” value [5] of the same compound?
Its value is “dose-responsive increase”.

What about the “Probability of survival at postnatal Day 45” value [6] of the same compound?
The value was −70%.

What about the “Body weight gain compared with untreated mice” value [7] of the same compound?
The value was “significantly increased”.

What about the “C2-CoA in liver, brain and heart” value [8] of the same compound?
The value was “rescued to wild-type levels”.
